Molecules are shown by their SMILES. pIC50: −log10 of the molar value.

T1 sequence (P48736 whole entry, canonical isoform): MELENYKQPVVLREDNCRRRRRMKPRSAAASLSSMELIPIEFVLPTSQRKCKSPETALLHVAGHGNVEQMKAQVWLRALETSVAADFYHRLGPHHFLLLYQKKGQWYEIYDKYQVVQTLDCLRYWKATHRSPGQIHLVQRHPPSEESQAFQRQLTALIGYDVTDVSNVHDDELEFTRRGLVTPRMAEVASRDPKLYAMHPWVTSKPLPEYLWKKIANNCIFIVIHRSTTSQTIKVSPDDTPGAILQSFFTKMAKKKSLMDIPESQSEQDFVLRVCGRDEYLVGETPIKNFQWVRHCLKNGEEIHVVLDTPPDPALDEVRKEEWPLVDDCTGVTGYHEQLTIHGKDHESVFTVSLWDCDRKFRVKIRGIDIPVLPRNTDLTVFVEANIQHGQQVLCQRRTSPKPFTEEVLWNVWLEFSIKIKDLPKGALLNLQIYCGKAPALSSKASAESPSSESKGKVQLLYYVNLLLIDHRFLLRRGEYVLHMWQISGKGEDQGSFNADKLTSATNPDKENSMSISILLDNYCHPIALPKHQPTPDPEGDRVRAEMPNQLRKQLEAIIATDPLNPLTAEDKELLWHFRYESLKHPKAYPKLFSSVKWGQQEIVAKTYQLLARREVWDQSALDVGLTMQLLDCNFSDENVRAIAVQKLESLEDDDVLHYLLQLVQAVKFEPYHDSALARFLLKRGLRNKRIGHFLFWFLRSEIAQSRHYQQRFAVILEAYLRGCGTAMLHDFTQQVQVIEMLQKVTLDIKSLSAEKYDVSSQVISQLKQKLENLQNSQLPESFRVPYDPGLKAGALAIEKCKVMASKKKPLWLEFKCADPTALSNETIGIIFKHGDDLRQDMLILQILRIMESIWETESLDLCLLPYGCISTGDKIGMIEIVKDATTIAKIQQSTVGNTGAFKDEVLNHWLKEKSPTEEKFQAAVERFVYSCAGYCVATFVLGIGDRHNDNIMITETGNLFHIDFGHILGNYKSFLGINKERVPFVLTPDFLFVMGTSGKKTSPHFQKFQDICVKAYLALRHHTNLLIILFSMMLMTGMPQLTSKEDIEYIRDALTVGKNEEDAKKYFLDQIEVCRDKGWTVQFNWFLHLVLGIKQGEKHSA
Chain of CYP3A4 (P08684 whole entry): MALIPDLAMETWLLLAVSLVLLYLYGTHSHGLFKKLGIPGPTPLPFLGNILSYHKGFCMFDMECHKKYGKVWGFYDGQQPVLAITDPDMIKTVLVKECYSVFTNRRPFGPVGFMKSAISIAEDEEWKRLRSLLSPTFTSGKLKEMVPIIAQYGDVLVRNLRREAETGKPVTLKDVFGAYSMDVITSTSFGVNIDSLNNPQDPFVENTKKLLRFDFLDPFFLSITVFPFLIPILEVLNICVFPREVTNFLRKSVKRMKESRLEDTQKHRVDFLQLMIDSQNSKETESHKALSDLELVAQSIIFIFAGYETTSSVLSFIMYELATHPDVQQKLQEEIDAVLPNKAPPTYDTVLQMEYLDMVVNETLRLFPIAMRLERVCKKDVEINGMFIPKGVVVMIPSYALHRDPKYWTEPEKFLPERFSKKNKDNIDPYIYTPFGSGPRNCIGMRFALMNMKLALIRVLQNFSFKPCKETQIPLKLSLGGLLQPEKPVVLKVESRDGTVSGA

Tested on in one data set: not listed separately
The data set is described as follows: Hepatic clearance in Sprague-Dawley rat by LC-MS/MS analysis. Type of data set: ADME. The conditions noted are these: in vivo.
Consider `C[C@@H](C1CC1)N1Cc2cc(-c3ccn4nc(N)c(C(=O)NC5CC5)c4n3)cc(S(=O)(=O)C3CC3)c2C1=O`, for which the CLH was 2.5 L/h/kg.

With `Cc1cc(-c2ccn3nc(N)c(C(=O)NC4COC4)c3n2)cc2c1C(=O)N([C@@H](C)C1CC1)C2`, the CLH is 2 L/h/kg.

Compound `C[C@@H](C1CC1)N1Cc2cc(-c3ccn4nc(N)c(C(=O)NC5CC5)c4n3)cc(OC(F)(F)F)c2C1=O` yielded a CLH of 0.5 L/h/kg.

The next data set has as its target T1, Phosphatidylinositol 4,5-bisphosphate 3-kinase catalytic subunit gamma isoform (Homo sapiens, UniProt P48736). The data set is described as follows: Inhibition of PI3Kgamma (unknown origin) in […] stimulated human THP-1 cells assessed as reduction in Akt phosphorylation level at Ser473 residue preincubated for 60 mins followed by rhMCP-1 stimulation and measured after 2 mins by AlphaLisa assay.
Conditions: not given
Type of data set: cell-based. (In Alpha technology, singlet oxygen from a donor bead excites a nearby acceptor bead.)
Usually pIC50 stands for the negative decadic logarithm of the IC50, by convention in mol/L. Consider `C[C@@H](C1CC1)N1Cc2cc(-c3ccn4nc(N)c(C(=O)NC5CC5)c4n3)cc(S(=O)(=O)C3CC3)c2C1=O`, for which the negative logarithm of the IC50 (pIC50) was 7.25.

As for `Cc1cc(-c2ccn3nc(N)c(C(=O)NC4COC4)c3n2)cc2c1C(=O)N([C@@H](C)C1CC1)C2`, the negative logarithm of the IC50 (pIC50) is 6.81.

On to `C[C@@H](C1CC1)N1Cc2cc(-c3ccn4nc(N)c(C(=O)NC5CC5)c4n3)cc(OC(F)(F)F)c2C1=O`, for which the negative logarithm of the IC50 (pIC50) was 7.24.

In another data set the target is T1, Phosphatidylinositol 4,5-bisphosphate 3-kinase catalytic subunit gamma isoform. The data set is described as follows: Inhibition of PI3Kgamma (unknown origin) using PIP2 as substrate preincubated for 1 hr followed by substrate addition and measured after 60 mins in presence of ATP by ADP-glo assay.
Conditions: not given
On the technique in general: ADP-Glo turns the ADP formed in a reaction into a luminescent signal.
In the case of `C[C@@H](C1CC1)N1Cc2cc(-c3ccn4nc(N)c(C(=O)NC5CC5)c4n3)cc(S(=O)(=O)C3CC3)c2C1=O`, the pIC50 is 8.77.

With `Cc1cc(-c2ccn3nc(N)c(C(=O)NC4COC4)c3n2)cc2c1C(=O)N([C@@H](C)C1CC1)C2`, the negative-log IC50 (pIC50) was 8.74.

`C[C@@H](C1CC1)N1Cc2cc(-c3ccn4nc(N)c(C(=O)NC5CC5)c4n3)cc(OC(F)(F)F)c2C1=O`: the pIC50 is 8.44.

Tested on in a further data set: not listed separately
The experiment in a line: Metabolic stability in human hepatocytes assessed as intrinsic clearance per 10^6 cells at 0.5 uM by LC-MS/MS analysis. The data set is classed as ADME, cell-based, Hepatocyte. Particulars: read-out: CLH.
For the compound `C[C@@H](C1CC1)N1Cc2cc(-c3ccn4nc(N)c(C(=O)NC5CC5)c4n3)cc(S(=O)(=O)C3CC3)c2C1=O`, the hepatocyte CLint at 0.5 µM is 1.99 µL/min/1e6 cells.

As to `Cc1cc(-c2ccn3nc(N)c(C(=O)NC4COC4)c3n2)cc2c1C(=O)N([C@@H](C)C1CC1)C2`, the hepatocyte CLint at 0.5 µM is 6.21 µL/min/1e6 cells.

Consider `C[C@@H](C1CC1)N1Cc2cc(-c3ccn4nc(N)c(C(=O)NC5CC5)c4n3)cc(OC(F)(F)F)c2C1=O`, for which the hepatocyte CLint at 0.5 µM turned out to be 1.67 µL/min/1e6 cells.

Tested on in another data set: not listed separately
The experiment in a line: Metabolic stability in rat hepatocyte assessed as intrinsic clearance per 10^8 cells at 0.5 uM by LC-MS/MS analysis. Type of data set: ADME, cell-based. Particulars: hepatocytes.
As for `C[C@@H](C1CC1)N1Cc2cc(-c3ccn4nc(N)c(C(=O)NC5CC5)c4n3)cc(S(=O)(=O)C3CC3)c2C1=O`, the hepatocyte intrinsic clearance was below 1.2 µL/min.

`Cc1cc(-c2ccn3nc(N)c(C(=O)NC4COC4)c3n2)cc2c1C(=O)N([C@@H](C)C1CC1)C2`: the hepatocyte intrinsic clearance was found to be 4.59 µL/min.

For `C[C@@H](C1CC1)N1Cc2cc(-c3ccn4nc(N)c(C(=O)NC5CC5)c4n3)cc(OC(F)(F)F)c2C1=O`, the hepatocyte intrinsic clearance is below 1.2 µL/min.

A further data set deals with Phosphatidylinositol 4,5-bisphosphate 3-kinase catalytic subunit alpha isoform (Homo sapiens, UniProt P42336). The data set is described as follows: Inhibition of PI3Kalpha (unknown origin) using PIP2 as substrate preincubated for 1 hr followed by substrate addition and measured after 60 mins in presence of ATP by ADP-glo assay.
Chain of Phosphatidylinositol 4,5-bisphosphate 3-kinase catalytic subunit alpha isoform (P42336 whole entry, canonical isoform): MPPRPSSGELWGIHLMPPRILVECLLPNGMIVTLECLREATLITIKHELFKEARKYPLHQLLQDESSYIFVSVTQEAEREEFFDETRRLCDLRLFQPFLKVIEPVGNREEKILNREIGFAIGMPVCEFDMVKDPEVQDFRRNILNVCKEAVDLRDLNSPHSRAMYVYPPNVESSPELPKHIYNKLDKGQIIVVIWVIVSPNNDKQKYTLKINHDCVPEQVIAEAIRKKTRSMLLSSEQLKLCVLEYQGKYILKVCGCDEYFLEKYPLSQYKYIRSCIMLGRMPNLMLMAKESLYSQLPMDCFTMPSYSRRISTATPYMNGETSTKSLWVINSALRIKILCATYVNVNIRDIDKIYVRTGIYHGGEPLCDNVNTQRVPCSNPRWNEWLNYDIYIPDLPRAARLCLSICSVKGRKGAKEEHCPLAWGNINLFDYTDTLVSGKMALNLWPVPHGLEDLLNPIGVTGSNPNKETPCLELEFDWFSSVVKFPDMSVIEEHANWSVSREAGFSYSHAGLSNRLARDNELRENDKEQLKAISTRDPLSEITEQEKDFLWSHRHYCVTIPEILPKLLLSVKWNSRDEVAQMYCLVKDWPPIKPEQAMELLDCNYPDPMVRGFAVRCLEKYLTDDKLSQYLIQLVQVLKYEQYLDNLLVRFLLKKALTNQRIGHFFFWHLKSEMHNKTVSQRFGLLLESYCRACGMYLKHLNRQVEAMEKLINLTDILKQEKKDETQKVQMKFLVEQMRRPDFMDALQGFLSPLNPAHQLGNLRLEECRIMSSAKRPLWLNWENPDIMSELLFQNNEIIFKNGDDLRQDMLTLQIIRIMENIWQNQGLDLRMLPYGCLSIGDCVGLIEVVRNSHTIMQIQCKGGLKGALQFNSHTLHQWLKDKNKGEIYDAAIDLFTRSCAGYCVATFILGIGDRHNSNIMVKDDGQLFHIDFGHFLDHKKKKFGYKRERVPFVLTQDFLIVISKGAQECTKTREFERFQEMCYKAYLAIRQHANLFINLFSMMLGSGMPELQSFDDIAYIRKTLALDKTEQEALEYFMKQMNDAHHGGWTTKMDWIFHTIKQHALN
Conditions: not given
On to `C[C@@H](C1CC1)N1Cc2cc(-c3ccn4nc(N)c(C(=O)NC5CC5)c4n3)cc(S(=O)(=O)C3CC3)c2C1=O`, for which the negative-log IC50 (pIC50) is 6.42.

Consider `Cc1cc(-c2ccn3nc(N)c(C(=O)NC4COC4)c3n2)cc2c1C(=O)N([C@@H](C)C1CC1)C2`, for which the negative-log IC50 (pIC50) was 6.08.

Take `C[C@@H](C1CC1)N1Cc2cc(-c3ccn4nc(N)c(C(=O)NC5CC5)c4n3)cc(OC(F)(F)F)c2C1=O`: the pIC50 was 5.83.

The target of another data set is T2, Phosphatidylinositol 4,5-bisphosphate 3-kinase catalytic subunit delta isoform (Homo sapiens, UniProt O00329).
T2 sequence (O00329 whole entry): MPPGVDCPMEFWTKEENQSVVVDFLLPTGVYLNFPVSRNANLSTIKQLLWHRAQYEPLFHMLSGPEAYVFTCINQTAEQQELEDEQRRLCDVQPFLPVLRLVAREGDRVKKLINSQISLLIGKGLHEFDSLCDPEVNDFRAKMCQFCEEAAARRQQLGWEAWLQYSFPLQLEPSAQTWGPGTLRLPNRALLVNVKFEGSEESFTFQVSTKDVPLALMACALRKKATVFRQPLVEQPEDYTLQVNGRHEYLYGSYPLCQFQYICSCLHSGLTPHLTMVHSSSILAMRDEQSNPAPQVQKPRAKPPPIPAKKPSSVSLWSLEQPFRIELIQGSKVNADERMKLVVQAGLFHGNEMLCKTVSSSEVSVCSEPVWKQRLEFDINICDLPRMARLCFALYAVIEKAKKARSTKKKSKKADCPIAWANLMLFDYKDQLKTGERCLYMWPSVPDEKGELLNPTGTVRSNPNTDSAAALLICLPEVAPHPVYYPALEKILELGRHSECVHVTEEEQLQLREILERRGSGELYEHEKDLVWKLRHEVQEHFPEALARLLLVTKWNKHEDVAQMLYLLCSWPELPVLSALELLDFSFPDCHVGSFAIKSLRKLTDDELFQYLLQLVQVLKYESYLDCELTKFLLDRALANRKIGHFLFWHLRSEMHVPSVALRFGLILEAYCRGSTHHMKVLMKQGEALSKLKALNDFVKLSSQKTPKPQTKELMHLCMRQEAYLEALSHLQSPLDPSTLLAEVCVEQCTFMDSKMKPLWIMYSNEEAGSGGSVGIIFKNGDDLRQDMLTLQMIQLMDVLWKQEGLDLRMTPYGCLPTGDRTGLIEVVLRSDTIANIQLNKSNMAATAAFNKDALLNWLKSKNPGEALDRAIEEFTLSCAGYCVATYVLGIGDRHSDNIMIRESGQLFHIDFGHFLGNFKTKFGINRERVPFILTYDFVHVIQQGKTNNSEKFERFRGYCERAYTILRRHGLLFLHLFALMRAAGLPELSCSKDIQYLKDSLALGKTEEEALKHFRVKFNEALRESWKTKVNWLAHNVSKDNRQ
The experiment in a line: Inhibition of PI3Kdelta (unknown origin) using PIP2 as substrate preincubated for 1 hr followed by substrate addition and measured after 60 mins in presence of ATP by ADP-glo assay.
Conditions: not given
On to `C[C@@H](C1CC1)N1Cc2cc(-c3ccn4nc(N)c(C(=O)NC5CC5)c4n3)cc(S(=O)(=O)C3CC3)c2C1=O`, for which the pIC50 was 6.76.

For the compound `Cc1cc(-c2ccn3nc(N)c(C(=O)NC4COC4)c3n2)cc2c1C(=O)N([C@@H](C)C1CC1)C2`, the negative logarithm of the IC50 (pIC50) was 6.16.

Consider `C[C@@H](C1CC1)N1Cc2cc(-c3ccn4nc(N)c(C(=O)NC5CC5)c4n3)cc(OC(F)(F)F)c2C1=O`, for which the pIC50 was 5.73.

The species named for the next data set is Homo sapiens. The experiment in a line: Selectivity ratio of IC50 for inhibition of PI3Kalpha (unknown origin) to IC50 for inhibition of PI3Kgamma (unknown origin).
Conditions: not given
As to `C[C@@H](C1CC1)N1Cc2cc(-c3ccn4nc(N)c(C(=O)NC5CC5)c4n3)cc(S(=O)(=O)C3CC3)c2C1=O`, the Ratio IC50 was 223.

In the case of `Cc1cc(-c2ccn3nc(N)c(C(=O)NC4COC4)c3n2)cc2c1C(=O)N([C@@H](C)C1CC1)C2`, the Ratio IC50 is 464.

In the case of `C[C@@H](C1CC1)N1Cc2cc(-c3ccn4nc(N)c(C(=O)NC5CC5)c4n3)cc(OC(F)(F)F)c2C1=O`, the Ratio IC50 amounted to 411.

The species entered for a further data set is Homo sapiens. The data set is described as follows: Selectivity ratio of IC50 for inhibition of PI3Kdelta (unknown origin) to IC50 for inhibition of PI3Kgamma (unknown origin).
Conditions: not given
`C[C@@H](C1CC1)N1Cc2cc(-c3ccn4nc(N)c(C(=O)NC5CC5)c4n3)cc(S(=O)(=O)C3CC3)c2C1=O`: the Ratio IC50 worked out at 100.

On to `Cc1cc(-c2ccn3nc(N)c(C(=O)NC4COC4)c3n2)cc2c1C(=O)N([C@@H](C)C1CC1)C2`, for which the Ratio IC50 is 388.

For `C[C@@H](C1CC1)N1Cc2cc(-c3ccn4nc(N)c(C(=O)NC5CC5)c4n3)cc(OC(F)(F)F)c2C1=O`, the Ratio IC50 worked out at 518.

Another data set has as its target CYP3A4 (Homo sapiens, UniProt P08684). The data set is described as follows: in vitro. The conditions noted are these: human liver microsomes, probe midazolam. In general terms: Microsomes from liver hold many membrane-bound enzymes, among them those of drug oxidation.
Description: Time dependent inhibition of CYP3A4 in human liver microsomes at 10 uM using midazolam as substrate preincubated for 30 mins in presence of NADPH by LC/MS/MS analysis relative to control
As usually defined, the inhibition is the drop in the measured response relative to a control, in per cent. In turn, `C[C@@H](C1CC1)N1Cc2cc(-c3ccn4nc(N)c(C(=O)NC5CC5)c4n3)cc(S(=O)(=O)C3CC3)c2C1=O` returned an inhibition at 30 min, 10 µM of 23%.

`Cc1cc(-c2ccn3nc(N)c(C(=O)NC4COC4)c3n2)cc2c1C(=O)N([C@@H](C)C1CC1)C2` displayed an inhibition at 30 min, 10 µM of 12%.

`C[C@@H](C1CC1)N1Cc2cc(-c3ccn4nc(N)c(C(=O)NC5CC5)c4n3)cc(OC(F)(F)F)c2C1=O` yielded an inhibition at 30 min, 10 µM of 20%.
